Reference: patent US20250170100A1, “MONOACYLGLYCEROL LIPASE INHIBITORS AND USE THEREOF FOR THE TREATMENT OF ANXIETY AND RELATED CONDITIONS” (Psy Therapeutics, Inc., priority 2021, published 2025)
pIC50: −log10 of the molar value. Read-outs that look alike come from different tables or passages of the source. One block for each molecule: values may come before it.

Assays:
[1] = Plasma and brain concentrations after single intraperitoneal administration of Compound 74; assay type: in vivo, male C57BL/6 mice; settings: male, C57BL/6, mouse; for Kp at 0.5 h: brain/plasma, read-out: Brain Plama Ratio (Kp) range
Description: (§1) This experiment was performed to determine plasma pharmacokinetics and estimate 2-AG levels in male C57BL/6 mice brain following a single intraperitoneal administration of Compound-74 (Dose: 5, 15, 50 and 150 mg/kg). The experiment was repeated at 150 mg/kg on 3 separate test dates to obtain the data shown in FIG. 1A (plasma and brain concentration of Compound 74 30 minutes after IP injection), and on the first and third test dates to obtain the data shown in FIG. 1B (brain concentration of 2-AG30 minutes after IP injection of Compound 74).
(§2) Study Design: A total of thirty male mice were used into the study and divided in to five groups with six mice in each group (n=6 mice/group/treatment design). Animals in Group 1 to Group 4 were administered intraperitoneally with Compound 74 solution formulation at 5, 15, 50 and 150 mg/kg dose, respectively. Animals in Group 5 were administered intraperitoneally with vehicle at 2 mL/kg dose. Blood and brain samples were collected at 0.5 h post dose. Mice were euthanized by cervical dislocation and brain samples were dissected rapidly and snap frozen in liquid nitrogen, weighed and homogenized in 2 mL of acetonitrile containing 2-AGd5. Blood samples were centrifuged at 4000 rpm for 10 minutes at 4° C. Plasma was harvested and separated in pre-labeled tubes. All samples were stored below −70° C. until bioanalysis.
(§3) Analysis: Brain samples were processed for 2-AG estimation. 2-AG levels were the detected values. Plasma concentrations were determined by fit for purpose LC-MS/MS method. LLOQ: 5.09 ng/mL (Plasma and brain)

human MAGL [2] = molecular target: T1, human MAGL (Homo sapiens (Human), UniProt Q99685); assay: MAGL inhibition potency assay with 4NPA substrate (methods of Table C); assay type: biochemical; settings: Method 1: Reaction Biology MAGL enzyme, 6 nM; read-out: MAGL Potency (Detection Method)
Description: Cayman's Monoacylglycerol Lipase Inhibitor Screening Assay provides a method for screening human MAGL inhibitors. MAGL hydrolyzes 4-nitrophenylacetate resulting in a yellow product, 4-nitrophenol, with an absorbance of 405-412 nm. The monoacylglycerol lipase inhibitor screening assay kit from Cayman Chemical was used to measure the MAGL potency for the compounds in Table 3 and Table 4. Cayman's Monoacylglycerol Lipase Inhibitor Screening Assay provides a method for screening human MAGL inhibitors. MAGL hydrolyzes 4-nitrophenylacetate resulting in a yellow product, 4-nitrophenol, with an absorbance of 405-412 nm. MAGL Inhibition was measured by the following assay. Monoacylglycerol Lipase (MAGL) inhibition was measured using recombinant MAGL enzyme (aa 2-303 RBC, internal preparation) and the substrate 4-Nitrophenyl acetate (4NPA) (Sigma-Aldrich, N8130). Hydrolysis of the substrate in the presence of the enzyme was measured by absorbance at 405 nm. 10 μL of assay buffer (10 mM Tris pH 7.5, 1 mM EDTA, 0.9% DMSO) was added to a black 384-well non-binding plate with clear bottom (Greiner, 781906) for each reaction. […] DMSO control wells were included for reference. A 10.8 nM (1.8×) MAGL mix in assay buffer was prepared, with […] added to each reaction well, for a final assay concentration of 6 nM. No enzyme wells received 25 μL of buffer. Plate was incubated at room temperature for 30 minutes. 35 mM solution of 4NPA in methanol was prepared daily. A 4.5×4NPA substrate solution was prepared in assay buffer and 10 μL was added to each reaction well, for a final assay concentration of 0.25 mM. Plate was spun for 1 minute at 1000 rpm before measuring absorbance using a CLARIOstar plate reader (BMG Labtech). A kinetic reading at 405 nm was done every minute for 30 minutes. Data was analyzed using the linear slope of the reaction progress curve and the average of the no-enzyme wells (background) was subtracted from the data. The background-subtracted slope data was converted to % activity using the average of wells with enzyme and DMSO vehicle. IC50s were calculated using GraphPad software (Sigmoidal dose response, variable slope equation). […] Table 5 provides potency measurements of MAGL inhibition measured using the Potency Assay of Example 18 above, with the following modifications described in Table C. [table]
Target sequence in this assay (Q99685 2-303): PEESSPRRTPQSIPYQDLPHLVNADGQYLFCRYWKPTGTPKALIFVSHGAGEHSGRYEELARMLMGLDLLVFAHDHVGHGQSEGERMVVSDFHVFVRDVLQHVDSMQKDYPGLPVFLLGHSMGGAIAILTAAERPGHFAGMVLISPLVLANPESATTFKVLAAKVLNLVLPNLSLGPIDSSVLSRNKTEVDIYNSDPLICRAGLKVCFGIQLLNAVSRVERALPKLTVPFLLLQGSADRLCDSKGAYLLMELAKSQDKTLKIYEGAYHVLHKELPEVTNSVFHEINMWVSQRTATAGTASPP

2-AG levels in brain = assay: 2-AG estimation in mouse brain after single intraperitoneal administration of Compound 74; assay type: in vivo, male C57BL/6 mice; settings: for Mean 2AG Brain Concentration: 0.5 h
Description: as §1, §2, §3

human MAGL [3] = molecular target: T1, human MAGL; assay: MAGL inhibition potency assay with 4NPA substrate (methods of Table C); assay type: biochemical
Target sequence in this assay (Q99685 2-303): as above

human MAGL [4] = molecular target: T1, human MAGL; assay: MAGL reversible inhibition assay (washout); assay type: biochemical; settings: for A: degree to which MAGL enzymatic activity returned following washout: pre-washout compound concentration: 1 μM
Description: The reversible mechanism of MAGL inhibition of a test compound of Formula (I) can be determined. Flag-tagged MAGL enzyme will be immobilized on anti-Flag beads. Immobilized enzyme will be incubated+/−inhibitor at a dose that produces complete inhibition. Colorimetric substrate (4-NPA) will be added and the reaction monitored on a plate reader for 30 minutes to verify complete inhibition. Immobilized enzyme will then be washed thoroughly to remove the inhibitor, and fresh substrate will be added. The reaction will be monitored for an additional 30 minutes; returning enzymatic activity will indicate reversibility of inhibition.
MAGL enzyme was incubated for 30 minutes in the presence of 40× the IC50 concentration of inhibitor. Enzyme+inhibitor mix was then diluted 40-fold so that the final concentration of the inhibitor equaled the IC50 concentration. Substrate was added and the reaction was monitored for 30 minutes.
Target sequence in this assay (Q99685 whole entry): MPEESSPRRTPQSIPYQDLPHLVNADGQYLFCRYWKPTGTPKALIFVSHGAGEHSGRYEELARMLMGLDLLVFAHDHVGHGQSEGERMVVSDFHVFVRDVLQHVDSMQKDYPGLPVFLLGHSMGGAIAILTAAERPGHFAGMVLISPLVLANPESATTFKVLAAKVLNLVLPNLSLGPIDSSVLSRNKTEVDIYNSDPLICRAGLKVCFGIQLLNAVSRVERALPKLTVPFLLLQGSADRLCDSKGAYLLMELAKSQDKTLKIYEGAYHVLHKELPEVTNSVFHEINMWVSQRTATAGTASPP

human recombinant FAAH = human recombinant FAAH (Homo sapiens (Human), UniProt O00519); assay: FAAH counter screen (Fatty Acid Amide Hydrolase Inhibitor Screening Assay Kit); assay type: biochemical
Description: MAGL inhibitor compounds were also counter-screened for FAAH inhibition potency using the following assay. Assessment of FAAH inhibition was performed using Fatty Acid Amide Hydrolase Inhibitor Screening Assay Kit (Cayman Item No. 10005196) following manufacture's instruction with some modifications. The kit utilizes human recombinant FAAH and the fluorescent substrate, AMC Arachidonoyl amide (AAMCA). 5 μL of assay buffer (125 mM Tris, pH 9.0, 1 mM EDTA, i.e. ethylenediaminetetraacetic acid) was added to a 384-well black plate (Corning, 3573). Test compounds and control inhibitor JZL-195 (Cayman Chemical, 13668) were tested in 10-concentration IC50 mode with 3-fold serial dilution at a starting concentration of 100 μM and 10 μM, respectively. 300 nL or 30 nL of test compounds were delivered into a 384-well black plate (Corning, 3573) using a Labcyte Echo, followed by addition of 15 μL of FAAH enzyme (Cayman, 700302) in assay buffer. After a 5-minute pre-incubation at room temperature, 10 μL of AAMCA was added in assay buffer to start the reaction. Final concentration of FAAH enzyme is not specified and AAMCA substrate was used at the 20 μM. After these dilutions, the final concentration of the test compounds ranged from 100 μM to 5.08 nM or 10 μM down to 0.508 nM. The reaction was allowed to progress for 60 minutes, while the plate was read on an Envision plate reader at an Ex/Em of 350/460 nm with readings every minute. The data was analyzed in Microsoft Excel, using the slope between 30 and 59 minutes. The average of the no-enzyme wells (background) was subtracted from the data. The background-subtracted slope data was converted to % activity using the average of wells with enzyme and DMSO vehicle. IC50 values were calculated using GraphPad software (Sigmoidal dose response, variable slope equation).
Compounds listed in Table D2 were tested in the FAAH Counterscreen of Example 19

[5] = Method 2: Cayman Chemical MAGL enzyme, 10 nM, read-out: MAGL Potency (Detection Method)
[6] = Method A: starting concentration of 100 μM

Sequence of human recombinant FAAH (O00519 whole entry): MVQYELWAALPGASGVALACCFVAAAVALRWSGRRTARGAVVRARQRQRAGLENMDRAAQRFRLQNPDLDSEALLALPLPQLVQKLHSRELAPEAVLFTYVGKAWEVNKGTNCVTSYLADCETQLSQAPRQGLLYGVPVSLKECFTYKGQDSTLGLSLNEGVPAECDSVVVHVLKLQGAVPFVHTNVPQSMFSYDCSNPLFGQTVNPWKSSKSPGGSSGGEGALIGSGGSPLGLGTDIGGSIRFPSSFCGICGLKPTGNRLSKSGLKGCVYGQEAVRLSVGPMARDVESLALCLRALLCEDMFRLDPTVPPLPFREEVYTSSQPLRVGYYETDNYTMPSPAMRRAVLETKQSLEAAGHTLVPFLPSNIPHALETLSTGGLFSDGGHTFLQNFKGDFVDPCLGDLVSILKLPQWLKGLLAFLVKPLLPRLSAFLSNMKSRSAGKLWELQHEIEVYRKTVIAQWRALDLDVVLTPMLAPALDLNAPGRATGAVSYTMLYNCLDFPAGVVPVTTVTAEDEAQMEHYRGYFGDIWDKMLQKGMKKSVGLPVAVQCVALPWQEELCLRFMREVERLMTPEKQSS

Molecule: Cc1cc(C2CC3(C2)CN(C(=O)c2cc(O)ccc2F)C3)n(-c2ccccc2C)n1 [Compound 74, (2-fluoro-5-hydroxyphenyl) (6-(3-methyl-1-(o-tolyl)-1H-pyrazol-5-yl)-2-azaspiro[3.3]heptan-2-yl) methanone]
concentration at 0.5 h ([1]; brain, IP 5 mg/kg, read-out: Brain concentration range): 16 to 19 ng/g | concentration at 0.5 h ([1]; brain, IP 15 mg/kg, read-out: Brain concentration range): 25 to 67 ng/g | concentration at 0.5 h ([1]; brain, IP 50 mg/kg, read-out: Brain concentration range): 34 to 1250 ng/g | concentration at 0.5 h ([1]; brain, IP 150 mg/kg, read-out: Brain concentration range): 2410 to 12100 ng/g | Kp at 0.5 h ([1]; IP 5 mg/kg): 0.51 to 0.68 | Kp at 0.5 h ([1]; IP 15 mg/kg): 0.16 to 0.44 | Kp at 0.5 h ([1]; IP 50 mg/kg): 0.06 to 0.08 | Kp at 0.5 h ([1]; IP 150 mg/kg): 0.07 to 0.2 | concentration at 0.5 h ([1]; plasma, IP 5 mg/kg, read-out: Plasma concentration range): 12 to 186 ng/mL | concentration at 0.5 h ([1]; plasma, IP 15 mg/kg, read-out: Plasma concentration range): 70 to 414 ng/mL | concentration at 0.5 h ([1]; plasma, IP 50 mg/kg, read-out: Plasma concentration range): 447 to 14900 ng/mL | concentration at 0.5 h ([1]; plasma, IP 150 mg/kg, read-out: Plasma concentration range): 34900 to 70300 ng/mL | pIC50 (human MAGL [2]): > 7.30 | Mean 2AG Brain Concentration (2-AG levels in brain; IP 5 mg/kg): 13.13 nmol/g | Mean 2AG Brain Concentration (2-AG levels in brain; IP 15 mg/kg): 13.46 nmol/g | Mean 2AG Brain Concentration (2-AG levels in brain; IP 50 mg/kg): 42.35 nmol/g | Mean 2AG Brain Concentration (2-AG levels in brain; IP 150 mg/kg): 120.02 nmol/g | levels of 2-AG compared to baseline (vehicle treatment) (2-AG levels in brain; IP 5 and 15 mg/kg dose): elevated slightly | levels of 2-AG compared to baseline (vehicle treatment) (2-AG levels in brain; IP 50 and 150 mg/kg dose groups): significant increase | pIC50 (human MAGL [3]; [5]): > 7.30 | pIC50 (human MAGL [3]; Method 3: Reaction Biology MAGL enzyme, 10 nM, read-out: MAGL Potency (Detection Method)): > 7.30 | pIC50 (human MAGL [3]; Method 4: Cayman Chemical MAGL enzyme, 15 nM, read-out: MAGL Potency (Detection Method)): 6.82 to 7.30 | pIC50 (human MAGL [3]; Method 5: Cayman Chemical MAGL enzyme, 25 nM, read-out: MAGL Potency (Detection Method)): > 7.30 | A: degree to which MAGL enzymatic activity returned following washout (human MAGL [4]): 162 | B: % MAGL activity returning after washout (human MAGL [4]; relative to control, immediately following a 30 minute washout): >50%

pIC50 (human recombinant FAAH; [6]): < 5.00 | pIC50 (human MAGL [3]; Method 2: Cayman Chemical MAGL enzyme, 10 nM, read-out: Potency (MAGL inhibition)): < 5.00
Molecule: COc1ccc(F)c(C(=O)N2CC3(CC(c4cc(C)nn4-c4ccccc4C)C3)C2)c1 [Compound 123, (2-fluoro-5-methoxyphenyl)(6-(3-methyl-1-(o-tolyl)-1H-pyrazol-5-yl)-2-azaspiro[3.3]heptan-2-yl)methanone]

pIC50 (human recombinant FAAH; Method B: starting concentration of 10 μM): < 5.00 | A: degree to which MAGL enzymatic activity returned following washout (human MAGL [4]): 47
Molecule: O=C(c1cc(O)ccc1F)N1CC2(CC(n3cc(C4CC4)c(-c4ccccc4F)n3)C2)C1 [Compound 493]

pIC50 (human recombinant FAAH; [6]): < 5.00 | pIC50 (human MAGL [3]; [5]): 6.30 to 6.82
Molecule: (2-fluoro-5-hydroxyphenyl) (6-(3-methyl-1-(o-tolyl)-1H-pyrazol-5-yl)-2-azaspiro[3.3]hept-5-en-2-yl) methanone [Compound 120]
